Test [1] concerns the target T1, Bromodomain-containing protein 2 (Homo sapiens, UniProt P25440). As to the kind of experiment: Binding affinity to human BRD2 domain 1 assessed as dissociation constant by isothermal titration calorimetry assay. A general note: ITC needs no label: the signal is the heat of the interaction.
Test [2] has as its target T2, Bromodomain-containing protein 3 (Homo sapiens, UniProt Q15059). Nature of the test: Binding affinity to human BRD3 domain 2 assessed as dissociation constant by isothermal titration calorimetry assay.
Test [3] has as its target T3, Protein deacetylase HDAC6 (Homo sapiens, UniProt Q9UBN7).
T3 sequence (Q9UBN7 whole entry): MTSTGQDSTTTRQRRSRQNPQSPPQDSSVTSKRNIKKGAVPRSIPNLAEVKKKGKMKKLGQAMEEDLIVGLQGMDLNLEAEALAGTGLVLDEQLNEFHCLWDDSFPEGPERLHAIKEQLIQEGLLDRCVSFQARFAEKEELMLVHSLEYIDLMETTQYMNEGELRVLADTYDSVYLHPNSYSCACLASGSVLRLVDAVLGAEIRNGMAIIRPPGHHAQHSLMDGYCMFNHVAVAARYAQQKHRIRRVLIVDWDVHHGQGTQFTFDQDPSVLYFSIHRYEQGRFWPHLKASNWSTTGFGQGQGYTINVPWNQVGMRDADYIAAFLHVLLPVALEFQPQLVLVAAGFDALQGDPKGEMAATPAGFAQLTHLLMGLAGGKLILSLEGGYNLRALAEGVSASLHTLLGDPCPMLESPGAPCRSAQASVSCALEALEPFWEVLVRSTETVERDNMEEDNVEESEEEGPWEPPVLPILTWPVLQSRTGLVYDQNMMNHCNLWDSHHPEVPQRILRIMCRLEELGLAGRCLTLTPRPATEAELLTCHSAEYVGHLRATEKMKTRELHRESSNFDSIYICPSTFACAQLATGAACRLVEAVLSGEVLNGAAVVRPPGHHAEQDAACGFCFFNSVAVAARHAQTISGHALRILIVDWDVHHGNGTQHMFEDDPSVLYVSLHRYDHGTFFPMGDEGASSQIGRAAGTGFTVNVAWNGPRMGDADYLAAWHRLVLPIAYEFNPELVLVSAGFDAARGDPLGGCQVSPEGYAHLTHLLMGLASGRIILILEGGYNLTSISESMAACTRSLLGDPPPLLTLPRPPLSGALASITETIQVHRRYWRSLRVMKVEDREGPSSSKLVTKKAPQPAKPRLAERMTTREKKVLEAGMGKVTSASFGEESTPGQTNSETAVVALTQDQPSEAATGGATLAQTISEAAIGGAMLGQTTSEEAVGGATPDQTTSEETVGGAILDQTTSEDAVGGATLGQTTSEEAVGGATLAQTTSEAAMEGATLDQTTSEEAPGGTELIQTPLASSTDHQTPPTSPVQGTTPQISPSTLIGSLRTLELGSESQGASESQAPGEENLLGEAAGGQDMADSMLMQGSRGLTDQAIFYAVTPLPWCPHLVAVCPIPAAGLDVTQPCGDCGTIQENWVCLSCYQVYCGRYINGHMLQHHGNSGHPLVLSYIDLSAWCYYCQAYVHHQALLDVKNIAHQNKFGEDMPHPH
Nature of the test: Inhibition of human recombinant HDAC6 assessed as fluorescence using fluorogenic substrate ZMAL incubated for 90 min by microplate reader.

The subject of test [4] is HPBALL. Nature of the test: Induction of apoptosis in human HPBALL cells assessed as decrease in MYC protein levels at 5 uM after 24 hrs by Western blot analysis. It counts as functional, cell-based. On the technique in general: In western blotting, separated proteins are transferred to a membrane and probed.
Test [5] has as its system MOLT-4. Nature of the test: Cytotoxicity against human MOLT-4 cells assessed as cell viability at 5 uM by CellTiter-Glo luminescent assay. It is filed as functional. The settings on record: read-out: Activity. Background: Cellular ATP, detected with luciferase, serves as a proxy for viable cell number.
Test [6] addresses Bromodomain-containing protein 4 (Homo sapiens, UniProt O60885). As to the kind of experiment: Binding affinity to human BRD4 domain 1 (unknown origin) assessed as dissociation constant by isothermal titration calorimetry assay. The conditions noted are these: read-out: Kd.
Test [7] deals with REH. As to the kind of experiment: Anticancer activity against human REH cells assessed as cell growth inhibition by CellTiter-Glo luminescent assay. It counts as functional, cell-based.
The test system of test [8] is HPBALL. As to the kind of experiment: Induction of apoptosis in human HPBALL cells assessed as accumulation at sub-G1 phase at 5 uM after 72 hrs by flow cytometry. It counts as functional, cell-based.
Test [9] concerns the target T1, Bromodomain-containing protein 2. As to the kind of experiment: Binding affinity to human BRD2 domain 2 assessed as dissociation constant by isothermal titration calorimetry assay.
The target of test [10] is Histone deacetylase (Homo sapiens) (UniProt Q13547+O15379+Q9UBN7+Q92769+Q9UQL6+Q8WUI4+Q9BY41+Q96DB2+P56524+Q9UKV0+Q969S8). As to the kind of experiment: Inhibition of HDAC in human K562 cells assessed as increase in acetylated histone H3 measured after 48 hrs by Western blot analysis. It counts as cell-based.
In test [11] the test system is TALL-1. Nature of the test: Anticancer activity against human TALL-1 cells assessed as cell growth inhibition by CellTiter-Glo luminescent assay. It is filed as functional, cell-based.
The target in test [12] is T4, Bromodomain-containing protein 7 (Homo sapiens, UniProt Q9NPI1).
T4 sequence (Q9NPI1 whole entry): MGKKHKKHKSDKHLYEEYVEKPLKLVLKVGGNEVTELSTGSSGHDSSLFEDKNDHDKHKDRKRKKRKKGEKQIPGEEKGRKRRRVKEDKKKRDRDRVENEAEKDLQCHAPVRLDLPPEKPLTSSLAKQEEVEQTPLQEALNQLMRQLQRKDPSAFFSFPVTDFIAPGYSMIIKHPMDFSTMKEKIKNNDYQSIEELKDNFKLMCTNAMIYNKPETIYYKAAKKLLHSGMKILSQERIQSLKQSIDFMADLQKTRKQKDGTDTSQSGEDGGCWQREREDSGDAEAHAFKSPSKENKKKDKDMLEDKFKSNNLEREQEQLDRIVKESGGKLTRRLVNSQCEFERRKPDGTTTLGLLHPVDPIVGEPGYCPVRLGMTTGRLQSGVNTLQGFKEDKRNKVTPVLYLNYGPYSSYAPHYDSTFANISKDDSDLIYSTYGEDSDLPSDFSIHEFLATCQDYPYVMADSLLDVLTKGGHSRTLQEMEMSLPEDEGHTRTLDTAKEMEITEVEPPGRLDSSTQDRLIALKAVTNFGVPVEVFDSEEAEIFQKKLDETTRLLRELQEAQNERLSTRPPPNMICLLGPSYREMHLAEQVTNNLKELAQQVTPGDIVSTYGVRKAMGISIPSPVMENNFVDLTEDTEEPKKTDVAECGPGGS
Nature of the test: Binding affinity to human BRD7 assessed as dissociation constant by isothermal titration calorimetry assay.

Test [13] relates to HAL-01. As to the kind of experiment: Anticancer activity against human HAL-01 cells assessed as cell growth inhibition by CellTiter-Glo luminescent assay. It is filed as functional, cell-based.
Test [14] addresses Histone deacetylase 2 (Homo sapiens, UniProt Q92769). As to the kind of experiment: Inhibition of human HDAC2 assessed as target activity using fluorogenic substrate ZMAL for 90 min by microplate reader at 355nm.
For test [15], the system named is HL-60. Nature of the test: Anticancer activity against human HL-60 cells assessed as cell growth inhibition by CellTiter-Glo luminescent assay. It is filed as functional, cell-based.
For test [16], the system named is HL-60. As to the kind of experiment: Cytotoxicity against human HL-60 cells assessed as cell viability at 5 uM by CellTiter-Glo luminescent assay. The settings on record: read-out: Activity. It is filed as functional.
In test [17] the target is Histone deacetylase 1 (Homo sapiens, UniProt Q13547). As to the kind of experiment: Inhibition of human recombinant HDAC1 assessed as fluorescence using fluorogenic substrate ZMAL incubated for 90 min by microplate reader.
For test [18], the target named is T2, Bromodomain-containing protein 3. As to the kind of experiment: Binding affinity to human BRD3 domain 1 assessed as dissociation constant by isothermal titration calorimetry assay.

This note sets out measurements from ChEMBL document CHEMBL5055650, “4-Acyl Pyrrole Capped HDAC Inhibitors: A New Scaffold for Hybrid Inhibitors of BET Proteins and Histone Deacetylases as Antileukemia Drug Leads” (J Med Chem, 2021).

Active and inactive are the calls of the source. The calls are words filed in the database; no cut-off is given here.

T1 sequence (P25440 whole entry, the tested form may be a part): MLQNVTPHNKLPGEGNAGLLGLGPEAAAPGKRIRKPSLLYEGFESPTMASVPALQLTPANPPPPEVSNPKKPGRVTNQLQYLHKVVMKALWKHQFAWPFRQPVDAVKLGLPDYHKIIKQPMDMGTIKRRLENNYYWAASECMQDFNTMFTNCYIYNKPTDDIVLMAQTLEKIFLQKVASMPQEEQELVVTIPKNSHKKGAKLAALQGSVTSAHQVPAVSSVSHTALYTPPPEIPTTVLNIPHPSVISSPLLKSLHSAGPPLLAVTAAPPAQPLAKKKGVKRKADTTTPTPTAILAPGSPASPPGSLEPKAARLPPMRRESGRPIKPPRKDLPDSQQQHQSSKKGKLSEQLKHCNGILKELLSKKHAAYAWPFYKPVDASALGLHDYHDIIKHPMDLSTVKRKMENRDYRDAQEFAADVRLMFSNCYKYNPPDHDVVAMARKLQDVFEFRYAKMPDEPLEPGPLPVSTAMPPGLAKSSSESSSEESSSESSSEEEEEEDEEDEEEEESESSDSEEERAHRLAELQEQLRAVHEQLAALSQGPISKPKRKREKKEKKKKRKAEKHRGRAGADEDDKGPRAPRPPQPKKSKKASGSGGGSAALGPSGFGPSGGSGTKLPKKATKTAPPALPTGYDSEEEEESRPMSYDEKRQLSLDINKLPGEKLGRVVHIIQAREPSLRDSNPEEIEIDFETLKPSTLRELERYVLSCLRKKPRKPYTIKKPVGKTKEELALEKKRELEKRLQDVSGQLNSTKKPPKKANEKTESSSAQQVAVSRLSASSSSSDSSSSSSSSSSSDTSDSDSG
Sequence of Histone deacetylase 1 (Q13547 whole entry, the tested form may be a part): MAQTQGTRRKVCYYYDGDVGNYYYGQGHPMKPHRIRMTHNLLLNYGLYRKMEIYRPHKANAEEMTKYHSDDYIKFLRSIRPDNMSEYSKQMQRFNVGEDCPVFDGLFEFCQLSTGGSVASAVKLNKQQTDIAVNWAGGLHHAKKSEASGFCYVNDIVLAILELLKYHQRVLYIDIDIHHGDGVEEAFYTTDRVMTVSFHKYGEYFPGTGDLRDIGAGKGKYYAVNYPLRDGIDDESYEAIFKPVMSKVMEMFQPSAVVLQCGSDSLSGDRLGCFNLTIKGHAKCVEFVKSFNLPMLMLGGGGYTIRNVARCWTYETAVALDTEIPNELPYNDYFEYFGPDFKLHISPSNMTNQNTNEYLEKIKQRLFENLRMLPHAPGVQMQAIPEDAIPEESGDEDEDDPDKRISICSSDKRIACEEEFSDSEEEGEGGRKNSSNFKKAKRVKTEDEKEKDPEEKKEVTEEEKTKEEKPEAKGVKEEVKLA
Sequence of Histone deacetylase 2 (Q92769 whole entry): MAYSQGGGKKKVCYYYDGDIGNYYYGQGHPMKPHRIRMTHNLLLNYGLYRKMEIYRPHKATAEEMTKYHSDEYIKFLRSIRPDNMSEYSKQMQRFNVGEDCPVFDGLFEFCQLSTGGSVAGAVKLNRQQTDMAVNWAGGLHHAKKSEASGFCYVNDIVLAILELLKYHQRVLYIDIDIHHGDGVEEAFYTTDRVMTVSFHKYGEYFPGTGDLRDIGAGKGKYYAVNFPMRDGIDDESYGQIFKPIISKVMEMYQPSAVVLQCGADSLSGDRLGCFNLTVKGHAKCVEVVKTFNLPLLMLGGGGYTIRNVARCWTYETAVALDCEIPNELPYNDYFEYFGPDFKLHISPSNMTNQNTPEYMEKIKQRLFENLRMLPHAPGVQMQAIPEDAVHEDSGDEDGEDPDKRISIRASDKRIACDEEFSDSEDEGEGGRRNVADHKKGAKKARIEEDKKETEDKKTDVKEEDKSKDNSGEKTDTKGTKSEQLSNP
T2 sequence (Q15059 whole entry, the tested form may be a part): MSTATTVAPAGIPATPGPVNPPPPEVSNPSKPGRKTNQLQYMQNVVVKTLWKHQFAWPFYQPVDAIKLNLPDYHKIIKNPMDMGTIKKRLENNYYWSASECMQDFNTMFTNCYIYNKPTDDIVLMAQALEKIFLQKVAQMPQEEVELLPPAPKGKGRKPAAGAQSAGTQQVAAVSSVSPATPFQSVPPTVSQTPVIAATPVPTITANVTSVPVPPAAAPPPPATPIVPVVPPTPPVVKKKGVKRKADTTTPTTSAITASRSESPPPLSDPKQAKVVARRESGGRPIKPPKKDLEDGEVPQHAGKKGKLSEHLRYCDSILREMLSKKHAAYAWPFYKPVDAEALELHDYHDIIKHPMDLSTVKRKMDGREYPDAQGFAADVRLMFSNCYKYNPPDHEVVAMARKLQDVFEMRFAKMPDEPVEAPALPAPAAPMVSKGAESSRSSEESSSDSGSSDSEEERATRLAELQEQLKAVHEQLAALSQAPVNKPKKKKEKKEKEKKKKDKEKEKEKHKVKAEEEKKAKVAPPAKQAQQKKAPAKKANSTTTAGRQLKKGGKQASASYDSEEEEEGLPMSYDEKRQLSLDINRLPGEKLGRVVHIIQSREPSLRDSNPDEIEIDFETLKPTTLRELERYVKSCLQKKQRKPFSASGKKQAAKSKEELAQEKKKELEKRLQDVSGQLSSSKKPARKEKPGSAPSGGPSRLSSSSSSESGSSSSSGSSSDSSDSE

`Cc1[nH]c(C(=O)Nc2cc(S(=O)(=O)N3CCOCC3)ccc2OCCCCCCCC(=O)NO)c2c1C(=O)CCCC2`: the Kd in test [1] was determined as 0.027 µM; in test [2] it was 0.1 µM; in [6], 0.076 µM; in [9], 0.067 µM; in test [12] it was 0.125 µM; in test [18], 0.037 µM. The IC50 in test [3] is 0.067 µM; in test [7] it was 7.79 µM; in test [11], 2.93 µM; in [13], 5.93 µM; in test [14], 0.534 µM; in test [15], 2.75 µM. Moreover, in test [17], the IC50 was 0.163 µM. For the same molecule, the result in test [4], in test [8] and in test [10] was Active. In addition, the viability at 5 µM in test [5] came to 1.7%; in [16], 35.9%.
For the molecule `CCc1c(C(=O)Nc2cc(/C=C/C(=O)NO)ccc2OC)[nH]c(C)c1C(C)=O`, the Kd in test [1] came out at 7.4 µM; in test [2], 7.55 µM; in test [6] it was 2.98 µM; in test [9], 3.3 µM; in test [12] it was 8.5 µM; in test [18] it was 5.65 µM. In addition, the IC50 in test [3] was 0.042 µM; in test [7] it was more than 25 µM; in [11] it was 2.88 µM; in test [13], more than 25 µM; in test [14], 0.359 µM; in test [15], 7.82 µM. For the same molecule, the IC50 in [17] was 0.179 µM. Besides, the result in test [4], in [8] and in test [10] was Active. Besides, the viability at 5 µM in [5] amounted to 3.5%; in test [16], 22.1%.
As for `COc1ccc(S(=O)(=O)n2ccc(/C=C/C(=O)NO)c2)cc1NC(=O)c1[nH]c(C)c2c1CCCCC2=O`, the dissociation constant (Kd) worked out at 0.23 µM in test [1]; 3.75 µM in test [2]; 0.79 µM in test [6]; 3.1 µM in [9]; 0.23 µM in [12]; 1.5 µM in test [18]. The 50% inhibitory concentration (IC50) in test [3] came to 0.046 µM; in test [7], 9.76 µM; in test [11] it was 2.33 µM; in test [13], 6.41 µM; in test [14], 0.208 µM; in test [15] it was 4.63 µM. Further, the 50% inhibitory concentration (IC50) in test [17] was 0.093 µM. Also, the outcome in test [4], in test [8] and in test [10] was Active. In addition, the viability at 5 µM in test [5] was found to be 4%; in [16], 42.3%.

Usually Kd stands for the concentration at which binding is half-saturated. The term IC50 denotes the concentration at which inhibition is half-maximal.
